Where two headings read alike, the source gives them in different places.
Legend:
[1] = Bioassay of I-123-labeled compounds: organ distribution of activity 5 minutes after tail vein injection; assay type: in vivo, Female Sprague-Dawley rats; details: rat; for Percent Dose in Stomach / Ratio Brain/Blood / Ratio Heart/Blood: 5 min
Description: Bioassays were performed utilizing compounds from the foregoing examples labeled with I-123 in accordance with the method described in Example 18. Female Sprague-Dawley rats weighing approximately 150 g were anesthetized with sodium pentobarbital and were injected in a tail vein with from 0.05 to 1.0 mCi (in a volume of 0.2 to 0.5 ml) of the I-123-labeled compound. Two specimens were utilized for each test.
The animals were sacrificed at 5 minutes post injection, the tails discarded and the amount of activity in various organs determined. Each organ was counted at a standardized geometry with a thallium iodide-activated sodium iodide crystal scintillation counter adjusted for the 159 keV emission of I-123. The organs were also weighed to one thousandth of a gram and the activity calculated as a percent of administered dose per gram organ weight.
The ratio of brain-to-blood activity was calculated as a percent of administered dose per gram. The important determinations are the amount of activity in the brain and the brain/blood ratio. The amount of activity in the stomach is related to loss of the I-123-label. For comparative purposes, I-123 antipyrine was utilized as a standard.

[2] = I-123 labeled, cited from earlier work
[3] = in vivo, iv, Percent Dose/g. at 5 min., Blood
[4] = in vivo, iv, Percent Dose/g. at 5 min., Brain
[5] = in vivo, iv, Percent Dose/g. at 5 min., Heart
[6] = i.v., ratio of percent dose per gram
[7] = i.v., stomach activity is related to loss of the I-123 label

SMILES	Percent Dose in Stomach ([1]; in vivo, iv) [Percent Dose]	Ratio Brain/Blood ([1]; in vivo, iv)	Ratio Heart/Blood ([1]; in vivo, iv)	tissue uptake at 5 min [1, 3] [%ID/g]	tissue uptake at 5 min [1, 4] [%ID/g]	tissue uptake at 5 min [1, 5] [%ID/g]	Ratio Brain/Blood [1, 6]	Ratio Heart/Blood [1, 6]	Percent Dose in Stomach [1, 7] [Percent Dose]	tissue uptake at 5 min ([1]; in vivo, iv, i.v. tail vein, 5 min post injection, blood, I-123 label, read-out: Percent Dose/g. at 5 min., Blood) [%ID/g]	tissue uptake at 5 min ([1]; in vivo, iv, i.v. tail vein, 5 min post injection, brain, I-123 label, read-out: Percent Dose/g. at 5 min., Brain) [%ID/g]	tissue uptake at 5 min ([1]; in vivo, iv, i.v. tail vein, 5 min post injection, heart, I-123 label, read-out: Percent Dose/g. at 5 min., Heart) [%ID/g]	concentration in the brain ([2]; literature)	in vivo deiodination ([2]; literature)	loss of the iodine label in the brain ([2]; prior art agent)
NC(=O)c1ccccc1[123I] [Example 2, o-iodobenzamide]	0.93	1.28	1.32	0.69	0.88	0.91	–	–	–	–	–	–	–	–	–
CNC(=O)c1ccccc1[123I] [Example 1, N-methyl-o-iodobenzamide]	0.94	1.21	1.28	0.86	1.04	1.1	–	–	–	–	–	–	–	–	–
O=C(Nc1ccccc1)c1ccccc1[123I] [Example 6, o-iodobenzanilide]	–	–	–	–	–	–	0.90	2.34	1.66	0.93	0.84	2.18	–	–	–
CCCCCCNC(=O)c1ccccc1[123I] [Example 3, N-hexyl-o-iodobenzamide]	0.86	1.05	1.21	0.56	0.59	1.04	–	–	–	–	–	–	–	–	–
Cc1c([123I])c(=O)n(-c2ccccc2)n1C [I^123 -iodoantipyrine, 4-iodoantipyrine]	–	–	–	–	–	–	–	–	2.32	–	–	–	suboptimal concentration in the brain	rapid in vivo deiodination	significant loss of the iodine label in the brain

The next lines start with results.

Percent Dose in Stomach ([1]; in vivo, iv) [Percent Dose]	Ratio Brain/Blood ([1]; in vivo, iv)	Ratio Heart/Blood ([1]; in vivo, iv)	tissue uptake at 5 min [1, 3] [%ID/g]	tissue uptake at 5 min [1, 4] [%ID/g]	tissue uptake at 5 min [1, 5] [%ID/g]	SMILES	Ratio Brain/Blood [1, 6]	Ratio Heart/Blood [1, 6]	Percent Dose in Stomach [1, 7] [Percent Dose]	tissue uptake at 5 min ([1]; in vivo, iv, i.v. tail vein, 5 min post injection, blood, I-123 label, read-out: Percent Dose/g. at 5 min., Blood) [%ID/g]	tissue uptake at 5 min ([1]; in vivo, iv, i.v. tail vein, 5 min post injection, brain, I-123 label, read-out: Percent Dose/g. at 5 min., Brain) [%ID/g]	tissue uptake at 5 min ([1]; in vivo, iv, i.v. tail vein, 5 min post injection, heart, I-123 label, read-out: Percent Dose/g. at 5 min., Heart) [%ID/g]	concentration in the brain ([2]; literature)	in vivo deiodination ([2]; literature)	loss of the iodine label in the brain ([2]; prior art agent)
0.83	1.10	1.31	0.84	0.92	0.96	NC(=O)CNC(=O)c1ccccc1[123I] [Example 12, o-iodohippuramide]	–	–	–	–	–	–	–	–	–
0.82	0.87	1.43	0.69	0.6	0.99	Cc1cccc(C)c1NC(=O)c1ccccc1[123I] [Example 7, o-iodobenz-2,6-xylidide]	–	–	–	–	–	–	–	–	–
0.82	1.28	1.70	0.43	0.54	0.73	O=C(NCCc1ccccc1)c1ccccc1[123I] [Example 9, N-phenethyl-o-iodobenzamide]	–	–	–	–	–	–	–	–	–
0.93	0.22	0.72	2.15	0.48	1.54	CN(C)C(=O)c1ccccc1[123I] [Example 10, N, N-dimethyl-o-iodobenzamide]	–	–	–	–	–	–	–	–	–
1.10	0.20	0.55	1.99	0.39	1.09	O=C(NNc1ccccc1)c1ccccc1[123I] [Example 13, o-iodobenzphenylhydrazide]	–	–	–	–	–	–	–	–	–
0.96	0.57	0.99	0.95	0.54	0.94	O=C(NO)c1ccccc1[123I] [Example 14, o-iodobenzohydramic acid]	–	–	–	–	–	–	–	–	–
0.88	1.00	2.26	0.68	0.68	1.54	O=C(NCc1ccccc1)c1ccccc1[123I] [Example 8, N-benzyl-o-iodobenzamide]	–	–	–	–	–	–	–	–	–
0.20	0.10	0.92	0.91	0.09	0.84	CCCCCCCCCCCCCCCCCCNC(=O)c1ccccc1[123I] [Example 5, N-octadecyl-o-iodobenzamide]	–	–	–	–	–	–	–	–	–

— patent publication US4279887A, “Amides useful as brain imaging agents” (Medi-Physics, Inc., priority 1978, dated 1981)
